ChEMBL document CHEMBL4619774 (J Med Chem, 2020)

How the values were obtained:
[1] = Clearance in Sprague-Dawley rat at 1 mg/kg, iv by HPLC-MS/MS analysis; type: ADME, organism-based; settings: in vivo
[2] = Half life in Sprague-Dawley rat at 1 mg/kg, iv administered as bolus dose by HPLC-MS/MS analysis; type: ADME, organism-based; settings: in vivo
[3] = Dose normalized AUC (0 to t) in Sprague-Dawley rat at 100 mg/kg, po via gavage by HPLC-MS/MS analysis; type: ADME, organism-based; settings: in vivo
[4] = Oral bioavailability in C57BL/6 mouse at 3 mg/kg by LC-MS/MS analysis; type: ADME, organism-based; settings: in vivo
[5] = Half life in beagle dog at 1 mg/kg, iv by HPLC-MS/MS analysis; type: ADME, organism-based, Canis lupus familiaris; settings: in vivo
[6] = target: Coagulation factor IX (Homo sapiens, UniProt P00740); type: single protein
Coagulation factor IX, sequence (P00740 47-191 limits assumed): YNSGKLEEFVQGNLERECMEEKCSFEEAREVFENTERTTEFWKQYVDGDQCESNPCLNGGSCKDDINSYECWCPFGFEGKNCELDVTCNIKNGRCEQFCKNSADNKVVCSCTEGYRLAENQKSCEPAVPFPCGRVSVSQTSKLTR
Coagulation factor IX, sequence (P00740 227-461 limits assumed): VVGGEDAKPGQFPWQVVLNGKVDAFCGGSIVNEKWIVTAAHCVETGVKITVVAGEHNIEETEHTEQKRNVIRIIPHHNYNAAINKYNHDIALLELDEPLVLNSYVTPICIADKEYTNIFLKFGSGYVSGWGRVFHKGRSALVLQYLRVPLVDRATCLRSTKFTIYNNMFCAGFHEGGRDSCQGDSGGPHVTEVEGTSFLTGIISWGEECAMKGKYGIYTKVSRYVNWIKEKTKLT

[7] = system: Plasma; test: Anticoagulant activity in human plasma assessed as concentration required to double the activated partial thromboplastin time incubated for 3 mins followed by calcium chloride addition by aPTT-s reagent based automated coagulometric method; type: functional
[8] = Clearance in beagle dog at 1 mg/kg, iv administered as bolus dose by HPLC-MS/MS analysis; type: ADME, organism-based, Canis lupus familiaris; settings: in vivo
[9] = Dose normalized Cmax in beagle dog at 10 mg/kg, po via gavage by HPLC-MS/MS analysis; type: ADME, organism-based, Canis lupus familiaris; settings: in vivo
[10] = Dose normalized AUC in C57BL/6 mouse at 100 mg/kg, po by LC-MS/MS analysis; type: ADME, organism-based; settings: in vivo
[11] = AUC (0 to t) in Sprague-Dawley rat at 1 mg/kg, iv administered as bolus dose by HPLC-MS/MS analysis; type: ADME, organism-based; settings: in vivo
[12] = Dose normalized AUC (0 to t) in beagle dog at 10 mg/kg, po via gavage by HPLC-MS/MS analysis; type: ADME, organism-based, Canis lupus familiaris; settings: in vivo
[13] = target: Urokinase-type plasminogen activator (Homo sapiens, UniProt P00749); type: single protein
[14] = Dose normalized Cmax in Sprague-Dawley rat at 100 mg/kg, po via gavage by HPLC-MS/MS analysis; type: ADME, organism-based; settings: in vivo
[15] = target: Coagulation factor XI (Homo sapiens, UniProt P03951); test: Inhibition of […] human plasma F11a catalytic domain expressed in Escherichia coli strain BL21(DE3) using D-Leu-Pro-Arg*Rh110-D-Pro as substrate preincubated for 60 mins followed by substrate addition and measured after 60 mins by fluorescence assay
Coagulation factor XI, sequence (P03951 19-387 limits assumed): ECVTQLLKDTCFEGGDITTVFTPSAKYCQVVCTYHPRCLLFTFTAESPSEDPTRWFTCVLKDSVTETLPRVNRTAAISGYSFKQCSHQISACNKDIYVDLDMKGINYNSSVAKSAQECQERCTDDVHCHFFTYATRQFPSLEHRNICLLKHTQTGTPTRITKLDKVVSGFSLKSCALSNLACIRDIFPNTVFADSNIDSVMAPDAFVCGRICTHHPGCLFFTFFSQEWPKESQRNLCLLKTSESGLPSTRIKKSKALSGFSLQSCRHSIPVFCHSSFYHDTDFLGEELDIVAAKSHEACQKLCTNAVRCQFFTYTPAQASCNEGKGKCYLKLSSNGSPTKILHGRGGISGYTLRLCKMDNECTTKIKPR
Coagulation factor XI, sequence (P03951 388-625 limits assumed): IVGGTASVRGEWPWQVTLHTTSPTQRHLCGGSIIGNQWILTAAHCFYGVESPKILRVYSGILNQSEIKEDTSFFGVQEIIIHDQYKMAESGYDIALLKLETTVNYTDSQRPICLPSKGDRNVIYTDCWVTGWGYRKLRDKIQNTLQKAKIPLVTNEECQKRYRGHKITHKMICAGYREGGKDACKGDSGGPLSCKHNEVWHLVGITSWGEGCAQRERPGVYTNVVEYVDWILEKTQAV

[16] = Oral bioavailability in Sprague-Dawley rat at 100 via gavage mg/kg by HPLC-MS/MS analysis; type: ADME, organism-based; settings: in vivo, 100 mg/kg
[17] = Oral bioavailability in Sprague-Dawley rat at 3 mg/kg via gavage by HPLC-MS/MS analysis; type: ADME, organism-based; settings: in vivo
[18] = Dose normalized AUC (0 to t) in Sprague-Dawley rat at 3 mg/kg, po via gavage by HPLC-MS/MS analysis; type: ADME, organism-based; settings: in vivo
[19] = physchem; settings: buffer, pH 7.4
[20] = AUC (0 to t) in beagle dog at 1 mg/kg, iv by HPLC-MS/MS analysis; type: ADME, organism-based, Canis lupus familiaris; settings: in vivo
[21] = Dose normalized Cmax in C57BL/6 mouse at 0.4 mg/kg, iv bolus injection or 3 mg/kg, po by LC-MS/MS analysis; type: ADME, organism-based; settings: in vivo
[22] = Volume of distribution at steady state in beagle dog at 1 mg/kg, iv by HPLC-MS/MS analysis; type: ADME, organism-based, Canis lupus familiaris; settings: in vivo, read-out: Vdss
[23] = Clearance in C57BL/6 mouse at 0.4 mg/kg, iv bolus injection or 3 mg/kg, po by LC-MS/MS analysis; type: ADME, organism-based; settings: in vivo
[24] = target: Prostaglandin G/H synthase 1 (Homo sapiens, UniProt P23219); test: Inhibition of COX1 (unknown origin)
Prostaglandin G/H synthase 1, sequence (P23219 whole entry): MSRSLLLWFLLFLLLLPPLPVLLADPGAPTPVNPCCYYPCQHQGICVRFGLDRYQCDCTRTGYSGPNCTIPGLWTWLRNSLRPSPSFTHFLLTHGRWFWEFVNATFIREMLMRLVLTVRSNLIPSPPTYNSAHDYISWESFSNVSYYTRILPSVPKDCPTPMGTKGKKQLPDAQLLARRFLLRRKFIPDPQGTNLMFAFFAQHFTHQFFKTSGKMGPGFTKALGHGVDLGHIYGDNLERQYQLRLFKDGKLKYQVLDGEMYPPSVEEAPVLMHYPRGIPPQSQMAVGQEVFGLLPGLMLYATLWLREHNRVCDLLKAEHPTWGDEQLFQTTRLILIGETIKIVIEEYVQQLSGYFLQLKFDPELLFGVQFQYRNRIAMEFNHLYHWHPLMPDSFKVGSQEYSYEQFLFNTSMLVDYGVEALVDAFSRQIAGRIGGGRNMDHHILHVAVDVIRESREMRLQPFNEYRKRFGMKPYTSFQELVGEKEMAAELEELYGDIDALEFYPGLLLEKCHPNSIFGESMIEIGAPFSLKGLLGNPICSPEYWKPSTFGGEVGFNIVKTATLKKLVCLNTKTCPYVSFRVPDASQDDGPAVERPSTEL

[25] = target: Plasma kallikrein (Homo sapiens, UniProt P03952); type: single protein
Plasma kallikrein, sequence (P03952 20-390 limits assumed): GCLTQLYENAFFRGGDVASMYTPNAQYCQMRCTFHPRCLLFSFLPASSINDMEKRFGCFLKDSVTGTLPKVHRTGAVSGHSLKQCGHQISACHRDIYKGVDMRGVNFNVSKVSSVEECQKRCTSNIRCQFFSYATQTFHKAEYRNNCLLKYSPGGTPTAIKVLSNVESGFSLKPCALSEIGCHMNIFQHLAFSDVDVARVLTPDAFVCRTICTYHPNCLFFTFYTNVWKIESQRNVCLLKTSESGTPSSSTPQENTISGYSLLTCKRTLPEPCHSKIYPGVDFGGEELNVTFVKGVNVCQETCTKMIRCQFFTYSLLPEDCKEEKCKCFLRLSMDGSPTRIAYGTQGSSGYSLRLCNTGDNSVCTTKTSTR
Plasma kallikrein, sequence (P03952 391-638 limits assumed): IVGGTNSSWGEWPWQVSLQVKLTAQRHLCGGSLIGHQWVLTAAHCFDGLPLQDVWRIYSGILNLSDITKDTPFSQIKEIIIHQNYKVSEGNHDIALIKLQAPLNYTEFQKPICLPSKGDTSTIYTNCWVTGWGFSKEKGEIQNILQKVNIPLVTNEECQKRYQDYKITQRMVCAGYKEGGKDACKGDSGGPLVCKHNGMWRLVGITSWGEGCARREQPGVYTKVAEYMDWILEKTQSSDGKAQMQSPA

[26] = target: Plasminogen (Homo sapiens, UniProt P00747); type: single protein
Plasminogen, sequence (P00747 97-580 limits assumed): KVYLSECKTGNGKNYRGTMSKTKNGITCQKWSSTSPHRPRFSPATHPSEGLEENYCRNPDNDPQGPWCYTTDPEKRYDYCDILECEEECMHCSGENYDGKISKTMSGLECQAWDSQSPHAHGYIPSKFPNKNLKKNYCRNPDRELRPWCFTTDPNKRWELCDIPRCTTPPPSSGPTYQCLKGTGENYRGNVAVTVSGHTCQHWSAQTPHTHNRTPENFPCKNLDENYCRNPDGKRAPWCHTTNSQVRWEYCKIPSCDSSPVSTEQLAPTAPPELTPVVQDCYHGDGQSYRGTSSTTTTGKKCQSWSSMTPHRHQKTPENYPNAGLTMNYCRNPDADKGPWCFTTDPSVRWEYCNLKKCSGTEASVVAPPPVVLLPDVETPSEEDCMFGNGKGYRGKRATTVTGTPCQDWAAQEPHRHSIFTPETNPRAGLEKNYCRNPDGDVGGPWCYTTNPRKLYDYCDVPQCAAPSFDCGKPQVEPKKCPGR
Plasminogen, sequence (P00747 581-810 limits assumed): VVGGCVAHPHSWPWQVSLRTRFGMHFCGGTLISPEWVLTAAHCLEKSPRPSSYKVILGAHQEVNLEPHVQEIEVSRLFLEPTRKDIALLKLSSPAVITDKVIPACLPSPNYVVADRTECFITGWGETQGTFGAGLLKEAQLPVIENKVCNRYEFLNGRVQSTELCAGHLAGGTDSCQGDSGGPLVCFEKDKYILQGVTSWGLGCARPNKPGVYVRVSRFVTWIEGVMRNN

[27] = Dose normalized AUC (0 to t) in beagle dog at 75 mg/kg, po via gavage by HPLC-MS/MS analysis; type: ADME, organism-based, Canis lupus familiaris; settings: in vivo
[28] = Tmax in C57BL/6 mouse at 0.4 mg/kg, iv bolus injection or 3 mg/kg, po by LC-MS/MS analysis; type: ADME, organism-based; settings: in vivo
[29] = system: Plasma; test: Effect on coagulation in human plasma assessed as concentration required to double the prothrombin time by thromboplastin-DS reagent based automated coagulometric method; type: ADME, cell-free
[30] = Dose normalized AUC in C57BL/6 mouse at 3 mg/kg, po by LC-MS/MS analysis; type: ADME, organism-based; settings: in vivo
[31] = Dose normalized Cmax in Sprague-Dawley rat at 30 mg/kg, po via gavage by HPLC-MS/MS analysis; type: ADME, organism-based; settings: in vivo
[32] = Apparent permeability across apical to basolateral side in MDCK-MDR1 cells; type: ADME, cell-based, Canis lupus familiaris; settings: dog
[33] = Dose normalized AUC (0 to t) in Sprague-Dawley rat at 30 mg/kg, po via gavage by HPLC-MS/MS analysis; type: ADME, organism-based; settings: in vivo
[34] = Dose normalized AUC in C57BL/6 mouse at 1 mg/kg, iv by LC-MS/MS analysis; type: ADME, organism-based; settings: in vivo
[35] = target: T1, Coagulation factor VII (Homo sapiens, UniProt P08709); type: single protein
T1 sequence (P08709 whole entry): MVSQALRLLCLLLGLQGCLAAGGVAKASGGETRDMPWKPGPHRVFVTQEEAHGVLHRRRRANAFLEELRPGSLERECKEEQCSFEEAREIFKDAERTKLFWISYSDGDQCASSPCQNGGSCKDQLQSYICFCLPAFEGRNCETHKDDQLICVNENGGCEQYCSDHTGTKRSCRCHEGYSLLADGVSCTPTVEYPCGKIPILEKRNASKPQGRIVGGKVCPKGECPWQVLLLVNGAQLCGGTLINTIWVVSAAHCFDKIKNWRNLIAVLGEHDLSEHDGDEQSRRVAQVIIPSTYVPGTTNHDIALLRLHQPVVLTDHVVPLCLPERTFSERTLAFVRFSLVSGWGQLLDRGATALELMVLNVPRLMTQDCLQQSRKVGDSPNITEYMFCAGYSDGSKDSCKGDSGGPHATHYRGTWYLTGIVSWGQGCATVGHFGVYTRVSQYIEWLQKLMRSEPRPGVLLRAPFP

[36] = Terminal half life in C57BL/6 mouse at 0.4 mg/kg, iv bolus injection or 3 mg/kg, po by LC-MS/MS analysis; type: ADME, organism-based; settings: in vivo, read-out: beta t1/2 (converted)
[37] = Oral bioavailability in beagle dog at 75 mg/kg via gavage by HPLC-MS/MS analysis; type: ADME, organism-based, Canis lupus familiaris; settings: in vivo
[38] = target: Coagulation factor X (Homo sapiens, UniProt P00742); type: single protein
Coagulation factor X, sequence (P00742 41-179 limits assumed): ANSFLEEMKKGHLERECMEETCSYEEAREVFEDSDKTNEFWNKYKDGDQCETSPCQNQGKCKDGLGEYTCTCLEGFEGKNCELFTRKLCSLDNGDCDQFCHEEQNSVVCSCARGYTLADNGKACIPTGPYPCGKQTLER
Coagulation factor X, sequence (P00742 235-488 limits assumed): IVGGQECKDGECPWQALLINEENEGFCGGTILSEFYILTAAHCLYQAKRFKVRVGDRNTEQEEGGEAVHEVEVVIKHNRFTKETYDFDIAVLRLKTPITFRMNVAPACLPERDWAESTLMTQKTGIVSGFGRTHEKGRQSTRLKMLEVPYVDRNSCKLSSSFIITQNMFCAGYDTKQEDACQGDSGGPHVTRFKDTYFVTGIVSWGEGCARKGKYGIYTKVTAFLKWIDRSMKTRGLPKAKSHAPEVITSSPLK

[39] = Tmax in C57BL/6 mouse at 100 mg/kg, po by LC-MS/MS analysis; type: ADME, organism-based; settings: in vivo
[40] = Oral bioavailability in C57BL/6 mouse at 100 mg/kg by LC-MS/MS analysis; type: ADME, organism-based; settings: in vivo

SMILES: CC(C)c1cc(-c2ccc3c(c2)[C@H](N)CO3)cc([C@H](O)Cn2ccc3cccc(C(=O)O)c32)c1
- clearance [1]: 9.4 mL/min/kg
- half-life [2]: 6.4 h
- AUCt/dose [3]: 1770 nM·h
- bioavailability [4]: 16%
- half-life [5]: 2.8 h
- IC50 [6]: 1920 nM
- 2aPTT [7]: 1.3 µM
- clearance [8]: 4.4 mL/min/kg
- Cmax/dose [9]: 217 nM
- AUC/dose [10]: 260215 nM·h
- AUC(0-t) [11]: 3.33 µM·h
- AUCt/dose [12]: 560 nM·h
- IC50 [13]: 170 nM
- Cmax/dose [14]: 323 nM
- IC50 [15]: 10 nM
- bioavailability [16]: 45%
- bioavailability [17]: 10%
- AUCt/dose [18]: 382 nM·h
- logD [19]: 2.2
- AUC(0-t) [20]: 10.7 µM·h
- Cmax/dose [21]: 494 nM
- Vd [22]: 0.3 L/kg
- clearance [23]: 11 mL/min/kg
- IC50 [24]: 4300 nM
- IC50 [25]: 1 nM
- IC50 [26]: 1890 nM
- AUCt/dose [27]: 2200 nM·h
- Tmax [28]: 1 h
- 2PT [29]: 28.7 µM
- AUC/dose [30]: 1297 nM·h
- Cmax/dose [31]: 143 nM
- Papp A→B [32]: 0.4 ×10⁻⁶ cm/s
- AUCt/dose [33]: 621 nM·h
- AUC/dose [34]: 3264 nM·h
- IC50 [35]: 3650 nM
- half-life [36]: 3.73 h
- bioavailability [37]: 21%
- IC50 [38]: 1050 nM
- Tmax [39]: 4 h
- bioavailability [40]: 100%
